How the values were obtained:
[1] = tested on: influenza varieties; conditions: laboratory cells infected with influenza varieties; cited from earlier work
[2] = DPPH radical scavenging antioxidant assay; assay type: biochemical; conditions: 0.125-0.50 mg/mL in ethanol, 30 min at RT, 517 nm; ranking among the three
[3] = 1 gram oral, chicken serum, 280 nm and 425 nm
[4] = cited from earlier work

Row | SMILES | reduction of viral replication [1] | antioxidant activity (DPPH radical scavenging, FIG. 16) [2] | HPLC peaks in serum at the 2-hour, 4-hour, and 24-hour timepoints [3] | water solubility [4]
1 | COc1cc(/C=C/C(=O)CC(=O)/C=C/c2ccc(O)c(OC)c2)ccc1O [curcumin] | over 90% | – | – | –
2 | COc1cc(CCC(=O)CC(=O)CCc2ccc(O)c(OC)c2)ccc1O [tetrahydrocurcumin] | – | higher antioxidant activity than curcumin but less than the tetrahydrocurcumin-Zn-curcumin | could be seen | not very water soluble
